Test systems include SK-MEL-5; SK-OV-3; SK-MEL-2; NCI-H522; HCT-116; SW-620; EKVX; LOX IMVI; A498; CAKI-1; UO-31; OVCAR-5; 786-0; ACHN; SNB-19; RXF 393; NCI/ADR-RES; HT-29; Malme-3M; RPMI-8226.
Holding throughout (test): DTP human tumour cell line panel, 48 h

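All cell lines were grown in 96-well plates and treated with compound for 48 hours. GI50 is the concentration that inhibits growth by half.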 Active and inactive are the calls of the source. Rule as the data show it: active = GI50 up to about 1.1 µM and inactive = higher.

As a reminder, the GI50 is the concentration that inhibits growth by half.

On to `Cc1cc(N)c2ccccc2[n+]1CCCCCCCCCC[n+]1c(C)cc(N)c2ccccc21` [DEQUALINIUM CHLORIDE], for which the 50% growth inhibitory concentration (GI50) is 528 nM (active) in the experiment on SK-MEL-5; 2390 nM (inactive) in the experiment with SK-OV-3; 1890 nM (inactive) in the experiment on SK-MEL-2; 752 nM (active) with NCI-H522; 1310 nM (inactive) with HCT-116; 2220 nM (inactive) in the experiment with SW-620. The GI50 with EKVX is 1820 nM (inactive); with LOX IMVI it was 1110 nM (active); in the experiment with A498, 5190 nM (inactive); in the experiment with CAKI-1 it was 7060 nM (inactive); in the experiment with UO-31, 4430 nM (inactive); in the experiment with OVCAR-5 it was 2340 nM (inactive). The GI50 with 786-0 is 2690 nM (inactive); with ACHN it was 1110 nM (active); with SNB-19, 783 nM (active); in the experiment on RXF 393, 10400 nM (inactive); in the experiment on NCI/ADR-RES, 10500 nM (inactive); in the experiment on HT-29 it was 1000 nM (active). Further, the values for the GI50 with Malme-3M and in the experiment with RPMI-8226 were 3050 nM (inactive) and 375 nM (active), respectively.

The values are drawn from ChEMBL document CHEMBL1201862, “PubChem BioAssay data set” (2004).
